# Test results: a melting point compilation (Tetko et al.; mined from patent text by program, amines drawn as free bases though some values may be those of a salt)
row,melting point [°C],Structure (SMILES)
1,142 to 144,CC(C)N1CCC(CNc2ccc(F)cc2C(=O)Nc2ccc(Cl)cn2)CC1
2,233 to 235,Fc1ccc(Nc2ncnc3cnc(NC4CCC(N5CCOCC5)CC4)nc23)cc1Cl (stereo not given)
3,115 to 116,O=C1c2ccccc2C(=O)N1C/C=C(\F)COc1ccc(Cl)cc1Cl
4,201 to 203,Cn1c(=O)c2c(Oc3cccc(Cl)c3)cccc2n2cnc(-c3noc(C4CC4)n3)c12
5,115 to 116,CCOc1cc2cc(COC(C)=O)c(COC(C)=O)c(-c3ccncc3)c2cc1OCC
6,169 to 172,CN(CCNc1ccc2c3c(nn2CCN)-c2c(OCc4ccccc4)ccc(OCc4ccccc4)c2C(=O)c13)Cc1ccccc1
7,62 to 64,CC1(C)CC(OC(=O)CCl)CC(C)(C)N1OC1CCCCC1
8,140 to 142,CCN(CC)CCCN(Cc1ccc(COc2cccc3c2CN(C2CCC(=O)NC2=O)C3=O)cc1)C(=O)OC(C)(C)C (stereo not given)
9,153,OC1CSC(Oc2ccc(-c3cccnc3F)nc2Cl)C(O)C1O (stereo not given)
10,142 to 143,Cn1nc(-c2c(Cl)cncc2Cl)nc1Cc1ccc(Cl)cc1
11,229 to 230,COc1cc(Nc2cc(C(=O)NN)ccn2)cc(C(F)(F)F)c1
12,206 to 208,O=c1oc2c(Br)cccc2cc1S(=O)(=O)Nc1ccc(Br)cc1
13,106,COC(=O)/C=C\C1C(C(=O)O)C1(C)C (stereo not given)
14,146 to 147,Cc1cc(N(C)C(N)=O)no1
15,118 to 121,CCC1(CCn2ccnc2)SCCS1
16,100 to 108,O=C(O)c1ccc(OCCCCCCC2CC2)c(F)c1F
17,268,CSc1nc(=O)[nH]c(C)c1Cl
18,172 to 174,Cc1ccc2c(c1)C1(CCN(CCCC(=O)c3ccc(F)cc3)C1)CC2O (stereo not given)
19,149 to 150,Cc1nc[nH]c1CSCCNC(=N)NS(=O)(=O)c1ccccc1
20,229 to 230,O=C(CNc1ccccc1)Nc1cc(Cl)ccc1C(=O)O
21,241 to 242,O=C(CSc1nc2ccccc2s1)c1ccc2[nH]c3ncc(Cl)cc3c2c1
22,65 to 68,COC(=O)c1ccc(OCCNC(=O)C2Cc3ccccc3N2S(=O)(=O)c2ccc(-c3ccc(F)cc3F)cc2)cc1F (stereo not given)
23,238 to 239,Cn1c2c(c3ccccc31)Cc1c(CO)c(CO)c(-c3ccc(Cl)cc3)n1C2
24,117 to 120,Cc1cc(C(O)(C(F)(F)F)C(F)(F)F)cc(C)c1OCCNCc1ccccc1
25,66 to 67,Cc1cc(N(C)C)ccc1C=O
26,85 to 86,CC(C)(C)OC(=O)NCCS(C)(=O)=O

row,melting point [°C],Structure (SMILES)
1,220 to 223,Cc1ccc(NC(=O)c2ccc(O)c(N)c2)cc1C
2,165 to 168,COC(=O)c1ccc(Cl)cc1NC(=O)CSc1ccc(O)cc1
3,135,COc1ccc(-n2nc(C(F)F)cc2-c2ccc(S(C)(=O)=O)cc2)cc1
4,200,COc1ccccc1Nc1ccc2c(c1)OCc1cc([N+](=O)[O-])ccc1C2=O
5,151 to 153,Oc1cccc2c1CCCC2N1CCCC1 (stereo not given)
6,253,O=C(O)c1ccc2c(c1)Sc1ccccc1O2
7,233,O=C(Nc1ccc2[nH]c(=O)oc2c1)C(=O)N1CCC(Cc2ccc(F)c(F)c2)CC1
8,82 to 83,O=S(=O)(c1ccccc1)n1ccnc1
9,156 to 158,CC(C)n1nc(-c2sc(NC(=O)CNCc3cccnc3)nc2-c2ccccc2)ccc1=O
10,130 to 135,CC(C)c1cccc(-c2ccc(C(=O)NO)nc2)c1
11,120 to 122,Clc1ccc(CNc2cc(Cl)nc(Cl)n2)cc1
12,130 to 133,CC(C)CCN1N=C(c2ccc(F)cc2)c2cc(F)ccc2CS1(=O)=O
13,207 to 208,CCCc1nc2c(N)nc3c(c2n1CC1(O)CCCC1)NCCC3
14,125 to 127,CCCCCC(C)N(Cc1ccc(OCCC(C)C)cc1)C(Nc1ccc(OC)cc1OC)=C1C(=O)COC1=O (stereo not given)
15,295,Cn1nc2nc(-c3ccc(N)c(C#N)c3)cc(C(F)(F)F)c2c1-c1ccccc1
16,147 to 149,COC(=O)C1=C(C)NC2(O)COC(=O)C2C1c1cccc([N+](=O)[O-])c1 (stereo not given)
17,> 280,Cc1nn(-c2ccc(C(=O)O)cc2)c(O)c1-c1c(C)nn(-c2ccc(C(=O)O)cc2)c1O
18,132 to 134,O=c1cc(C(F)(F)F)nc(Cl)n1-c1cc(Oc2ncccn2)c(Cl)cc1F
19,144 to 145,COc1cc2cc(-c3ccccc3)sc2c(Cl)c1Cl
20,140,Nc1ccnc(N)c1I
21,123 to 125,CCCCCCCCCCC1Cc2ccc(C(=O)O)cc2N1 (racemic)
22,254 to 255,CSc1ccc(-n2cnc3ccc(-c4nnc(N)o4)cc32)cc1
23,169 to 171,OCc1ccc(OCc2cn3c(Cl)cccc3n2)cc1
24,131 to 132,O=C1Nc2cccnc2N(CCCCCCN2CCCCC2)c2ccccc21
25,88 to 90,CC(C)(C)OC(=O)C(ON1CCNC1=Nc1c(Cl)cccc1Cl)c1ccccc1 (stereo not given)
26,126 to 130,COc1cc(C)c(C(O)C#CC(F)(F)F)c(C)c1C (stereo not given)

row,melting point [°C],Structure (SMILES)
1,175 to 176,COc1ccc(CCNC(=O)C(N)=O)cc1OC1CCCC1
2,286,CNC(=O)Nc1snc(SC)c1C#N
3,115 to 120,CN1CCC(C2Oc3cc(F)ccc3Cn3cccc32)CC1 (stereo not given)
4,78,O=[N+]([O-])c1cc(Cl)c(Cl)cc1NCCCCl
5,208 to 210,Clc1ccc2nc(-c3cccs3)c(-c3ccncc3)n2n1
6,134 to 135,Nc1c(-c2ccc(OC(F)(F)F)cc2)nnn1-c1ccc(C(F)(F)F)cc1F
7,92 to 93,COc1ccc2ncc(CO)cc2c1
8,88 to 89,CCCCCCCCC(SCCCCCC)C(=O)Nc1c(OC)ccc2ncccc12 (stereo not given)
9,93 to 95,CN(C)CCCn1ccc(-c2ccc(F)cc2)c1-c1ccncc1
10,> 400,O=C(O)c1cccn2c(-c3ccc(F)cc3)cnc12
11,138 to 140,CCCCCCN(CCCCCC)C(Nc1ccc(-c2ccccc2)cc1)=C1C(=O)COC1=O
12,97 to 99,COC=C(C(=O)OC)c1ccccc1CC(=O)c1ccccc1
13,225,O=C(Cn1c(Cl)ccc1Cl)N=C1NCCN1
14,107 to 108,COc1cc(C=O)ccc1OCc1ccc2ccccc2c1
15,230 to 232,COc1ccc(Nc2nc(Cl)nc3c(OC)cccc23)c(C)c1
16,160 to 161,CCCc1nc2c(N)nc3ccccc3c2n1CCOCCCS(=O)(=O)c1ccccc1
17,101 to 103,CCn1nc(OCCCc2ccc(OCCOC)cc2Oc2ncc(C(F)(F)F)cc2Cl)cc1CCC(=O)O
18,165 to 166,CSC(=Cc1ccc(N)cc1)S(C)=O (stereo not given)
19,283 to 285,CC1(N2C(=O)c3cccc(NC(=O)c4cccc(Cl)c4)c3C2=O)CCC(=O)NC1=O (stereo not given)
20,205 to 208,Oc1cccc(CN2CCCCC2c2nc(-c3ccccc3)c(-c3ccccc3)o2)c1 (stereo not given)
21,202 to 204,CNC(=O)c1sc(C(C)(C)C)cc1NC(=O)Nc1ccc(C)cc1
22,46 to 47,CCCCC/C(=C\C=C\C(=O)Oc1ccc([N+](=O)[O-])cc1)c1ccc(OC)cc1
23,217 to 218,CCOC(=O)c1cc(=O)c2cc(O)ccc2s1
24,51 to 53,C[C@@H]1CCCC[C@H]1C(=O)O (relative stereo)
25,38 to 39,CCCCCCCCCc1ccc(C(CCCC=O)C(=O)OC)cc1 (stereo not given)
26,175 to 178,COc1ccc(C(C)NC2=Nc3ccc(Cl)cc3C(=O)N(C)C2)cc1OC (stereo not given)

row,melting point [°C],Structure (SMILES)
1,83 to 85,CSc1nc(N2CCN(CCCCN3C(=O)CC4(CCCC4)CC3=O)CC2)ncc1F
2,164 to 165,O=C(O)CCc1cnoc1-c1ccc(Br)cc1
3,182 to 184,Cc1c(F)cc(C(=O)O)c(Cl)c1N
4,169 to 170,Cc1ccccc1NC(=O)CN1CC2CCC(C1)N2S(=O)(=O)c1cccc2nsnc12
5,248 to 252,Nc1c(Br)cc(S(N)(=O)=O)cc1C(F)(F)F
6,138 to 140,O=C1N=c2ccccc2=N1
7,52 to 54,COCCN1CCN(CCc2ccc(Nc3ncc4c(n3)-c3ccccc3C(c3ccccc3)C4)cc2)CC1 (stereo not given)
8,96.5,O=[N+]([O-])c1ccc2c(c1)CCC(CO)O2 (stereo not given)
9,297 to 299,O=c1[nH]nc2c(Br)cccn12
10,144 to 146,CCC(CCOC)c1ccc(Cl)c2nc3n(c12)CCCN3c1ccc(Cl)cc1Cl (stereo not given)
11,166 to 168,N#Cc1c(N2CCCC2)cc(-c2ccccc2)c2c1C(=O)c1ccccc1-2
12,180 to 181,Cc1ccc(Nc2nnc(Cc3ccncc3)c3ccccc23)cc1C
13,157 to 158,O=C(O)CCCCn1ccnc1
14,113 to 114,COC(=O)Cc1ccc(OC(=S)N(C)C)cc1F
15,142 to 143,CCN1c2ncc(CCc3cncnc3)cc2C(=O)N(C)c2cccnc21
16,76 to 77,N#CC=Cc1ccc(F)c(Cl)c1F
17,108 to 111,CC(C)(C#N)c1cc(-n2cncc2C=O)cc(C(C)(C)C#N)c1
18,65 to 75,COCCOc1ccc(Nc2nc(Nc3cc4c(cc3OC)CCN(CC(=O)N(C)C)CC4)ncc2Cl)c(S(=O)(=O)C(C)C)c1
19,48 to 49,CCOC(=O)c1nc(SC)nc(OC)c1OCc1ccccc1
20,318,N#Cc1c[nH]c2c(C(=O)O)cccc12
21,136 to 138,COC(=O)NC1CC(=O)N(c2cc(Cl)cc(Cl)c2)C1=O (stereo not given)
22,163 to 164,NC(=O)c1ccnc(-c2ccccc2)c1N
23,158,CC(C(=O)NC1Cc2ccccc2CC1O)c1ccccc1 (stereo not given)
24,147 to 148,O=C(c1c(Cl)cccc1[N+](=O)[O-])n1ccnc1-c1ccccc1
25,261 to 263,N#CCCNC(=O)c1n[nH]cc1NC(=O)c1cc(Cl)ccn1
26,233 to 236,CN(C)c1ccc2nnc(-c3ncc([N+](=O)[O-])n3C)n2n1

row,Structure (SMILES),melting point [°C]
1,OCCNCc1nnc2n1-c1ccc(Cl)cc1C(c1ccccc1)=NC2,162 to 164
